The values below come from paper PMC11050443, “Discovery of Strong 3-Nitro-2-Phenyl-2H-Chromene Analogues as Antitrypanosomal Agents and Inhibitors of Trypanosoma cruzi Glucokinase” (International Journal of Molecular Sciences, 2024).

What is called Ki is a dissociation constant, usually derived from enzyme kinetics or from competition with a known ligand. For orientation: IC50 means the concentration at which inhibition is half-maximal.

Like-named read-outs stand apart in the source and are kept apart here.

For one series, the target named is TcGlcK. Also noted: method as in PMID 26778112. Conditions: competitive inhibitor, previous study; cited from earlier work.
For a further series, the system named is T. cruzi. Also noted: method as in PMID 26778112. The settings on record: cited from earlier work.
For series [1], the target named is T1, LmG6PDH (Leuconostoc mesenteroides glucose-6-phosphate dehydrogenase) (Leuconostoc mesenteroides, UniProt P11411).
T1 construct: purchased Worthington Biochemical Corporation
T1 sequence (P11411 whole entry): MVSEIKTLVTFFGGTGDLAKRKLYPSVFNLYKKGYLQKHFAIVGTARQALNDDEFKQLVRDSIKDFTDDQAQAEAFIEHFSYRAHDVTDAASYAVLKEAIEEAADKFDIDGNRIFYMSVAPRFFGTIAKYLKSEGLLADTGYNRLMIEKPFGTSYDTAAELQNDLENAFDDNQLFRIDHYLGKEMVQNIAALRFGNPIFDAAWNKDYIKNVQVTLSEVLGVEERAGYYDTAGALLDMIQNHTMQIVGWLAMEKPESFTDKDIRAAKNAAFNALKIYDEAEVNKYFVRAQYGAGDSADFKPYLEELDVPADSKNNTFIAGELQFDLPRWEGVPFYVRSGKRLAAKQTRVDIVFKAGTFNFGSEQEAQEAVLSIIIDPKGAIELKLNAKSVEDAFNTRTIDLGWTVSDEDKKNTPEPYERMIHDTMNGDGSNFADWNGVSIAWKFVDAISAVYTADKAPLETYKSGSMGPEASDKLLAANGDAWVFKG
In words: Confirmatory assay on the LmG6PDH enzyme-coupled system. It counts as biochemical. The settings on record: N = 4. The protocol: Two criteria were examined in order to certify on-target confirmed hits: (a) the assessment of potential inhibition to the LmG6PDH enzyme-coupled system, and (b) the precision of the assay (per inhibitor), performed in quadruplicate (N = 4). Compounds were tested in quadruplicate in a black, round-bottom 96-well microplate in which wells were filled with a buffered solution (50 mM triethanolamine, 150 mM NaCl) amounting to a total volume of 206.5 μL that contained the following reagents at final assay concentrations: LmG6PDH (6.1 μg/mL), NADP^+ (0.54 mM), ATP (0.54 mM), MgCl2 (6.9 mM), DMSO (1.0% by vol.), D-glucose-6-phosphate (0.80 mM), and a 3-nitro-2-phenyl-2H-chromene analogue (20.0 μM). The analogue compounds were pre-incubated with the enzyme system a minimum of 10 min prior to the initiation of the assay. The enzymatic reactions were initiated and terminated similarly as described in the TcGlcK primary screen (vide supra). The production of NADPH was monitored using the VANTAstar-F multi-mode microplate reader set to fluorescent mode, λex = 340 nm and λem = 485 nm, over a 120-s timeframe.

The test system of series [2] is T. brucei brucei (427 strain) bloodstream form. The experiment in a line: In vitro T. brucei biological assay (Alamar blue). Type of series: cell-based, Trypanosoma brucei brucei. Conditions: Trypanosoma brucei, 48 h, T. brucei brucei 427 strain bloodstream form growth inhibition; N = 3. The protocol: The in vitro cell culture preparation of T. brucei brucei (427 strain) trypomastigote bloodstream form followed by treatment with inhibitors has recently been described by Ajayi and colleagues. The 3-nitro-2-phenyl-2H-chromene compounds (inhibitors) that were prepared as 10.0 mM stock solutions in 100% DMSO were thawed from −80 °C to room temperature. HMI-9 medium [Iscove’s modification of DMEM supplemented with 10% FBS, 10% serum plus (SAFC), 0.05 mM bathocuproinesulfonate, 1.5 mM L-cysteine, 1.0 mM hypoxanthine, 0.2 mM β-mercaptoethanol, 0.16 mM thymidine, and 1.0 mM pyruvate] was prepared. In a sterile, round-bottom, 96-well microplate, 100 μL of HMI-9 medium was added to each well. A volume of 2.0 μL of a given compound plus a volume of 98.0 μL of fresh media were both added to a well in the first row of the 96-well microplate; this was performed for each compound to be tested. Solutions were mixed with a micropipette followed by transfer of 100 μL to the next row and repeated. The compound solutions ranged from 0.0781–10.0 μM and this was accomplished by serial dilution using a 2-fold dilution. T. brucei parasites were centrifuged for 10 min at 900× g (without centrifuge breaks). The media was carefully discarded by aspiration and the parasites were resuspended in warm media. Parasites were counted in a Newbauer chamber. Afterwards, the parasites were diluted to 50,000 cells/mL (5000 cells/well) and 100 μL was added to each well of the 96-well microplate using a multichannel pipette. After 48 h, 20.0 μL of Alamar blue was added to each well and the plate was placed into an incubator for 4 h at 37 °C. Fluorescence readings were measured using a Victor Nivo multimode microplate reader (PerkinElmer, Inc.; Shelton, CT, USA) at λex = 530 nm and λem = 590 nm. All measurements were performed in triplicate and IC50 determinations for percent growth inhibition were carried out using GraphPad Prism 10.0. The detergent SDS was used as a positive control and its final solution concentration was 0.5%. Three control experiments were performed, as follows: (a) parasites alone, (b) parasites and 0.5% SDS, and (c) the medium alone.
A general note: The colour change of resazurin is a common sign of viable cells or microbes.

The subject of a further series is NIH-3T3 fibroblasts. In words: In vitro cytotoxicity assay of mammalian NIH-3T3 fibroblasts (Alamar blue). Type of series: cell-based. The settings on record: NIH-3T3 fibroblast growth inhibition, host cell toxicity; 4 days; N = 3. How it is done:
The in vitro cell culturing of mammalian NIH-3T3 fibroblasts following treatment with inhibitors to assess for cytotoxicity has previously been described. DMEM lacking phenol red and supplemented with 2% FBS and 1% PSG was warmed up. NIH-3T3 cells were trypsinized, as described in the cell culture protocol. When cells became detached, they were harvested in DMEM lacking phenol red and including 2% FBS and 1% PSG. The cells were centrifuged at 1000 rpm for 5 min, the medium was discarded, and the cells were resuspended in fresh DMEM lacking phenol red and including 2% FBS and 1% PSG. The cells were centrifuged at 1000 rpm for 5 min, resuspended in the medium, counted, and diluted to 500,000 cells/mL. Dilution was accomplished by transferring the stock number of cells into a sterile basin and 100 μL of cells was added to each well of a transparent, sterile, flat-bottom, 96-well microplate (50,000 cells/well) using a multichannel pipette. The plate was placed into the incubator for 3 h to allow cells to attach. The 3-nitro-2-phenyl-2H-chromene compounds were thawed from −80 °C to room temperature. The compounds were prepared as 10.0 mM stock solutions in 100% DMSO. A volume of 2.0 μL of a given compound plus a volume of 98.0 μL of fresh media were both added to a well in the first row of the 96-well microplate; this was performed for each compound to be tested. The solutions were mixed with a micropipette, followed by the transfer of 100 μL to the next row and repeated. The compound solutions ranged from 0.0139–30.3 μM and this was accomplished by serial dilution using a 3-fold dilution. After incubation for 4 days, 10.0 μL of Alamar blue was added to each well. Absorbance readings were measured using a Victor Nivo multimode microplate reader (PerkinElmer, Inc.; Shelton, CT, USA) at λ = 590 nm. All measurements were performed in triplicate and TC50 determinations for percent growth inhibition were carried out using GraphPad Prism 10.0. The final volume per well of cells and a given compound was 100 μL and this volume became 110 μL after the addition of Alamar blue. The detergent SDS was used as a positive control and its final solution concentration was 0.1%. Three controls were carried out, as follows: (a) NIH-3T3 cells alone, (b) perished NIH-3T3 cells (NIH-3T3 cells in the presence of 0.1% SDS), and (c) the medium alone.

Series [3] addresses T2, TcGlcK (Trypanosoma cruzi glucokinase) (Trypanosoma cruzi, UniProt Q4E4E1).
T2 construct: made in house; host or cells: Escherichia coli BL21(DE3)
T2 sequence (Q4E4E1 1-376): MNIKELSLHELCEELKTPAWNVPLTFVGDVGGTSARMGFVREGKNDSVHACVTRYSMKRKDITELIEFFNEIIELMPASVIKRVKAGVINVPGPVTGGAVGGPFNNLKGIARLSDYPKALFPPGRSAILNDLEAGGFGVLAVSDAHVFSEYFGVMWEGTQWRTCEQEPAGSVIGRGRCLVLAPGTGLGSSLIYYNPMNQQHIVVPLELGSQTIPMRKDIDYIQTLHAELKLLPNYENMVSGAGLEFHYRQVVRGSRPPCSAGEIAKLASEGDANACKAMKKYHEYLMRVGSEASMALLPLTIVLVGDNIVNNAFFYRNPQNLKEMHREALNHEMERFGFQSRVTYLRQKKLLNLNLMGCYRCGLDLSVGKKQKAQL
In words: TcGlcK primary screening assay (LmG6PDH-coupled, Dixon plots). Type of series: biochemical. The settings on record: Dixon plots; 0.4, 0.6, 0.8 mM D-glucose; N = 1 unless marked, N = 3 for compounds 1, 4, 9, 11. The protocol:
A primary screening assay was carried out for TcGlcK with the 3-nitro-2-phenyl-2H-chromene analogues. The data was subsequently processed for respective Ki values in order to assess enzyme inhibition. […] The primary screening assay was performed with the substrate D-glucose in various concentrations of 0.4 mM, 0.6 mM, and 0.8 mM to produce Dixon plots with different slopes. Each of the 3-nitro-2-phenyl-2H-chromene analogues were originally prepared at a working concentration of 1.0 mM and were dissolved in 100% DMSO. The final assay concentrations of the analogue compounds (inhibitors) ranged from 0.0–10.0 μM. The analogue compounds were pre-incubated with the enzyme system a minimum of 10 min prior to the initiation of the assay. The enzymatic reaction was carried out at room temperature (22 °C; temperature optimum) using ATP to initiate the reaction, and termination was performed after 120 s (time optimum) by stopping the reaction with the addition of an EDTA (pH 8.0) solution, to a final concentration of 100 mM. TcGlcK enzyme activity was analyzed for the production of NADPH. Each completed reaction mixture was added into a black, round-bottom microplate and scanned by a VANTAstar-F multi-mode microplate reader (BMG LABTECH, Inc.; Cary, NC, USA). The instrument was set to fluorescence mode and the wavelengths (λex = 340 nm; λem = 485 nm) were set to observe the relative fluorescence units of NADPH [40]. The enzyme-inhibition kinetics Ki value determination and the mode of inhibition was determined using the Cornish–Bowden Dixon Plot analysis method.

`O=C(N[C@H]1[C@@H](O)[C@H](O)C(CO)O[C@@H]1O)OCc1ccccc1` (some centres unmarked) [carboxybenzyl glucosamine]: the inhibition constant (Ki) at TcGlcK is 710 nM. Besides, in the series with T. cruzi (previous study, read-out: in vitro percent-growth-inhibition IC50 in T. cruzi culture), the IC50 is 48700 nM.

For `O=[N+]([O-])C1=Cc2ccccc2OC1c1ccccc1Cl` (centres unmarked) [Compound 12, 2-(2-Chlorophenyl)-3-nitro-2H -chromene], in series [1] (20 µM compound), the “LmG6PDH inhibitory effect (in words)” value is given as “did not observe any significant LmG6PDH inhibitory effects”. For the same molecule, in series [1] (percentage of inhibition at 20 µM compound in comparison to controls, read-out: LmG6PDH Inh20), the inhibition at 20 µM worked out at 8.6 ± 0.1%. Besides, the IC50 in series [2] stood at 1670 ± 60 nM. For the same molecule, the “NIH-3T3 TC50” value in the series with NIH-3T3 fibroblasts amounted to 10900 ± 1550 nM. In series [3], this molecule registered a Ki of 14000 nM.

For the molecule `O=C(Cn1ccnc1[N+](=O)[O-])NCc1ccccc1` [Benznidazole, benznidazole], the IC50 in the series with T. cruzi (benznidazole control, previous work, read-out: T. cruzi IC50) is 1120 ± 95 nM.
